Measurements reported in patent US12612387B2, “RAS inhibitors and methods of using the same” (Jazz Pharmaceuticals Ireland Limited, priority 2020, dated 2026).

Key:
[1] = molecular target: T1, K-RAS G12C (Homo sapiens, UniProt P01116, G12C); test: Compound depletion assay, K-RAS G12C; type: binding; details: G12C protein 20 μM, compound 8 μM, 25° C.
T1 construct: His tag; purchased Stratech
Experimental: (§1) Compound Depletion Assay Method
(§2) Lyophilized human K-RAS (12 Cys) protein (His tag) and human K-RAS (12 Asp) protein (His tag) were purchased from Stratech and reconstituted at 30 μM in water. The protein concentration of K-RAS G12C and K-RAS G12D was adjusted to 20 μM in K-RAS Assay Buffer (20 mM HEPES pH 7.5, 150 mM NaCl, 1 mM MgCl2). A 49 μl aliquot of protein solution was transferred to 1.5 ml eppendorfs and incubated at room temperature for 10 minutes. A 1 μl aliquot of compound solution in DMSO was added to the protein solutions in the 1.5 ml eppendorfs to initiate the reaction, with a final assay compound concentration of 8 μM. Reactions were agitated at 25° C., 700 rpm. At each time point (0, 30, 180, 360, 1440 minutes), 10 μl of the reaction mixture was removed, added to 30 μl quench solution (0.3% formic acid, 75 nM propranolol in acetonitrile) to stop the reaction and stored at 4° C. Once all reactions were quenched, the samples were centrifuged at 16000 g for 10 minutes to pellet the protein and salts. A 10 μl aliquot of supernatant containing compound was diluted in 50:50 acetonitrile:H2O in a 96 well plate. The plates were heat sealed and the samples analysed by LC-MS/MS to determine the concentration of compound remaining in the samples. To determine the reaction progress, the compound signal was normalized to the internal standard signal (propranolol). The decrease in free compound concentration is shown as a percentage over time, with the […] at time zero fixed at one hundred percent. Compound is assumed to be completely depleted when no longer detectable with a double blank sample as reference.

[2] = molecular target: T2, K-RAS G12D (Homo sapiens, UniProt P01116, G12D); test: Compound depletion assay, K-RAS G12D; type: binding; details: G12D protein 20 μM, compound 8 μM, 25° C.
T2 construct: His tag; purchased Stratech
T2 sequence (P01116 1-188 isoform P01116-2 G12D): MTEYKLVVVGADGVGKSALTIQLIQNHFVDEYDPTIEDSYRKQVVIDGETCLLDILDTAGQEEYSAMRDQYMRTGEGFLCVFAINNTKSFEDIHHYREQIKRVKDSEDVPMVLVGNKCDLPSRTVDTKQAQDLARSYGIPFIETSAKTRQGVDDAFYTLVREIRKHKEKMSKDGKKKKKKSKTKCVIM
Experimental: as §1, §2

T1 sequence (P01116 1-188 isoform P01116-2 G12C): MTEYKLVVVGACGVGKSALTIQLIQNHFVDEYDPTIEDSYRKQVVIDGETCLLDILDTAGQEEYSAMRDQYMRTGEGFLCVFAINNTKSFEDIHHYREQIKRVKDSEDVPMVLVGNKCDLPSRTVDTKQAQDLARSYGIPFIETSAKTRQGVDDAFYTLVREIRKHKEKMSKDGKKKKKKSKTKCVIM

SMILES	30 min Category (compound remaining at timepoint) [1]	3 hr Category (compound remaining at timepoint) [1]	6 hr Category (compound remaining at timepoint) [1]	30 min Category (compound remaining at timepoint) [2]	3 hr Category (compound remaining at timepoint) [2]	6 hr Category (compound remaining at timepoint) [2]	24 hr Category (compound remaining at timepoint) [1]	24 hr Category (compound remaining at timepoint) [2]
C=CC(=O)N1CCN(c2cc(C(=O)Nc3cc(O)cc4ccccc34)nc(OCC3CN(C)CCO3)n2)C[C@@H]1CC#N (stereo in doubt) [Example 52, 6-[(3S)-3-(cyanomethyl)-4-prop-2-enoyl-piperazin-1-yl]-N-(3-hydroxy-1-naphthyl)-2-[[(2R)-4-methylmorpholin-2-yl]methoxy]pyrimidine-4-carboxamide]	C (≤30% compound remaining at timepoint)	C (≤30% compound remaining at timepoint)	C (≤30% compound remaining at timepoint)	A (≥70% compound remaining at timepoint)	A (≥70% compound remaining at timepoint)	A (≥70% compound remaining at timepoint)		
C=CC(=O)N1CCN(c2cc(C(=O)Nc3cccc4ccccc34)nc(OC[C@@H]3CCCN3C)n2)CC1 [Example 01, 2-[[(2S)-1-methylpyrrolidin-2-yl]methoxy]-N-(1-naphthyl)-6-(4-prop-2-enoylpiperazin-1-yl)pyrimidine-4-carboxamide]		A (≥70% compound remaining at timepoint)			A (≥70% compound remaining at timepoint)		B (30%-70% compound remaining at timepoint)	A (≥70% compound remaining at timepoint)
C=CC(=O)N1CCN(c2cc(C(=O)Nc3cccc4ccccc34)nc(OC[C@@H]3CCCN3C)n2)C[C@@H]1CC#N [Example 02, 6-[(3S)-3-(cyanomethyl)-4-prop-2-enoyl-piperazin-1-yl]-2-[[(2S)-1-methylpyrrolidin-2-yl]methoxy]-N-(1-naphthyl)pyrimidine-4-carboxamide]		B (30%-70% compound remaining at timepoint)			A (≥70% compound remaining at timepoint)		B (30%-70% compound remaining at timepoint)	A (≥70% compound remaining at timepoint)
C=CC(=O)N1CCN(c2cc(C(=O)Nc3cc(O)cc4ccccc34)nc(OC[C@@H]3CCCN3C)n2)CC1 [Example 03, N-(3-hydroxy-1-naphthyl)-2-[[(2S)-1-methylpyrrolidin-2-yl]methoxy]-6-(4-prop-2-enoylpiperazin-1-yl)pyrimidine-4-carboxamide]	B (30%-70% compound remaining at timepoint)	C (≤30% compound remaining at timepoint)	C (≤30% compound remaining at timepoint)		A (≥70% compound remaining at timepoint)		C (≤30% compound remaining at timepoint)	A (≥70% compound remaining at timepoint)
C=CC(=O)N1CCN(c2cc(C(=O)Nc3cccc(O)c3)nc(OC[C@@H]3CCCN3C)n2)CC1 [Example 04, N-(3-hydroxyphenyl)-2-[[(2S)-1-methylpyrrolidin-2-yl]methoxy]-6-(4-prop-2-enoylpiperazin-1-yl)pyrimidine-4-carboxamide]		A (≥70% compound remaining at timepoint)			A (≥70% compound remaining at timepoint)		A (≥70% compound remaining at timepoint)	A (≥70% compound remaining at timepoint)
C=CC(=O)N1CCN(c2cc(C(=O)Nc3ccc(O)cc3)nc(OC[C@@H]3CCCN3C)n2)CC1 [Example 05]		A (≥70% compound remaining at timepoint)			A (≥70% compound remaining at timepoint)		A (≥70% compound remaining at timepoint)	A (≥70% compound remaining at timepoint)
C=CC(=O)N1CCN(c2cc(C(=O)Nc3ccccc3O)nc(OC[C@@H]3CCCN3C)n2)CC1 [Example 06, N-(2-hydroxyphenyl)-2-[[(2S)-1-methylpyrrolidin-2-yl]methoxy]-6-(4-prop-2-enoylpiperazin-1-yl)pyrimidine-4-carboxamide]		A (≥70% compound remaining at timepoint)			A (≥70% compound remaining at timepoint)		A (≥70% compound remaining at timepoint)	A (≥70% compound remaining at timepoint)
C=CC(=O)N1CCN(c2cc(C(=O)Nc3cccc4ccccc34)nc(OCCN3CCOCC3)n2)CC1 [Example 07, 2-(2-morpholinoethoxy)-N-(1-naphthyl)-6-(4-prop-2-enoylpiperazin-1-yl)pyrimidine-4-carboxamide]		A (≥70% compound remaining at timepoint)			A (≥70% compound remaining at timepoint)		A (≥70% compound remaining at timepoint)	A (≥70% compound remaining at timepoint)
C=CC(=O)N1CCN(c2cc(C(=O)Nc3cc(O)cc4ccccc34)nc(OC[C@@H]3CCCN3C)n2)C[C@@H]1CC#N [Example 08, 6-[(3S)-3-(cyanomethyl)-4-prop-2-enoyl-piperazin-1-yl]-N-(3-hydroxy-1-naphthyl)-2-[[(2S)-1-methylpyrrolidin-2-yl]methoxy]pyrimidine-4-carboxamide]	B (30%-70% compound remaining at timepoint)	C (≤30% compound remaining at timepoint)	C (≤30% compound remaining at timepoint)	A (≥70% compound remaining at timepoint)	A (≥70% compound remaining at timepoint)	A (≥70% compound remaining at timepoint)	C (≤30% compound remaining at timepoint)	A (≥70% compound remaining at timepoint)
C=CC(=O)N1CCN(c2cc(C(=O)Nc3cccc4ccccc34)nc(-c3cccnc3)n2)CC1 [Example 09, N-(1-naphthyl)-6-(4-prop-2-enoylpiperazin-1-yl)-2-(3-pyridyl)pyrimidine-4-carboxamide]		A (≥70% compound remaining at timepoint)	A (≥70% compound remaining at timepoint)	A (≥70% compound remaining at timepoint)	A (≥70% compound remaining at timepoint)	A (≥70% compound remaining at timepoint)	B (30%-70% compound remaining at timepoint)	A (≥70% compound remaining at timepoint)
C=CC(=O)N1CCN(c2cc(C(=O)Nc3cccc4ccccc34)nc(-c3cnn(C)c3)n2)CC1 [Example 10, 2-(1-methylpyrazol-4-yl)-N-(1-naphthyl)-6-(4-prop-2-enoylpiperazin-1-yl)pyrimidine-4-carboxamide]		A (≥70% compound remaining at timepoint)			A (≥70% compound remaining at timepoint)		A (≥70% compound remaining at timepoint)	A (≥70% compound remaining at timepoint)
C=CC(=O)N1CCN(c2cc(C(=O)Nc3cccc4ccccc34)nc(-c3ccnn3C)n2)CC1 [Example 11, 2-(2-methylpyrazol-3-yl)-N-(1-naphthyl)-6-(4-prop-2-enoylpiperazin-1-yl)pyrimidine-4-carboxamide]	A (≥70% compound remaining at timepoint)	A (≥70% compound remaining at timepoint)			A (≥70% compound remaining at timepoint)		A (≥70% compound remaining at timepoint)	A (≥70% compound remaining at timepoint)
C=CC(=O)N1CCN(c2cc(NC(=O)c3cccc4ccccc34)nc(N3CCN(C)CC3)n2)CC1 [Example 12, N-[2-(4-methylpiperazin-1-yl)-6-(4-prop-2-enoylpiperazin-1-yl)pyrimidin-4-yl]naphthalene-1-carboxamide]		A (≥70% compound remaining at timepoint)			A (≥70% compound remaining at timepoint)		A (≥70% compound remaining at timepoint)	A (≥70% compound remaining at timepoint)
